In PubChem BioAssay AID1963838 (Molecular Pharmacology Branch, DTP, NCI, 2024):

Tested on: 855422-203-R-J1-PDC complex spheroid viability
Assay: Anticancer human tumor 855422-203-R-J1-PDC patient-derived bladder carcinoma cell line growth inhibition [POLQ]
Settings: for IC50: curve of first compound; for viability, T/C: stronger effect = lower value; active means viability on the fitted dose curve at most 10% of control; inactive means the rest
Summary of the method: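 Growth inhibition in 3D: complex spheroids (tumor PDC, HUVEC, MSC) treated with POLQ inhibitor combinations; where Cmax unknown, highest tested concentration 10 microM, except SN-38 at 1 microM.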

[1] = second compound 0.0316 µM, first compound 0.0316 µM
[2] = second compound 0.0316 µM, first compound 0.1 µM
[3] = second compound 0.1 µM, first compound 0.0316 µM
[4] = second compound 0.1 µM, first compound 0.1 µM
[5] = second compound 0.316 µM, first compound 0.0316 µM
[6] = second compound 0.316 µM, first compound 0.1 µM
[7] = second compound 1 µM, first compound 0.0316 µM
[8] = second compound 1 µM, first compound 0.1 µM
[9] = second compound 3.16 µM, first compound 0.0316 µM
[10] = second compound 3.16 µM, first compound 0.1 µM
[11] = second compound 10 µM, first compound 0.0316 µM
[12] = second compound 10 µM, first compound 0.1 µM
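Further: spheroids exposed to compounds for seven days before readout.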

Cn1ncnc1[C@H]1c2n[nH]c(=O)c3cc(F)cc(c23)N[C@@H]1c1ccc(F)cc1 + Cc1cccc(N(C)C(=O)C2C(O)CCN2c2nc(C)cc(C(F)(F)F)c2C#N)c1
inactive: viability, T/C (second compound 0.0316 µM, first compound 0.000316 µM) 114% | viability, T/C (second compound 0.0316 µM, first compound 0.001 µM) 107% | viability, T/C (second compound 0.0316 µM, first compound 0.00316 µM) 115% | viability, T/C (second compound 0.0316 µM, first compound 0.01 µM) 108% | viability, T/C [1] 108% | viability, T/C [2] 103% | viability, T/C (second compound 0.1 µM, first compound 0.000316 µM) 102% | viability, T/C (second compound 0.1 µM, first compound 0.001 µM) 103% | viability, T/C (second compound 0.1 µM, first compound 0.00316 µM) 98.5% | viability, T/C (second compound 0.1 µM, first compound 0.01 µM) 100% | viability, T/C [3] 105% | viability, T/C [4] 107% | viability, T/C (second compound 0.316 µM, first compound 0.000316 µM) 108% | viability, T/C (second compound 0.316 µM, first compound 0.001 µM) 104% | viability, T/C (second compound 0.316 µM, first compound 0.00316 µM) 116% | viability, T/C (second compound 0.316 µM, first compound 0.01 µM) 104% | viability, T/C [5] 116% | viability, T/C [6] 104% | viability, T/C (second compound 1 µM, first compound 0.000316 µM) 100% | viability, T/C (second compound 1 µM, first compound 0.001 µM) 109% | viability, T/C (second compound 1 µM, first compound 0.00316 µM) 112% | viability, T/C (second compound 1 µM, first compound 0.01 µM) 102% | viability, T/C [7] 104% | viability, T/C [8] 97.3% | viability, T/C (second compound 3.16 µM, first compound 0.000316 µM) 98.6% | viability, T/C (second compound 3.16 µM, first compound 0.001 µM) 98% | viability, T/C (second compound 3.16 µM, first compound 0.00316 µM) 96.4% | viability, T/C (second compound 3.16 µM, first compound 0.01 µM) 113% | viability, T/C [9] 113% | viability, T/C [10] 104% | viability, T/C (second compound 10 µM, first compound 0.000316 µM) 109% | viability, T/C (second compound 10 µM, first compound 0.001 µM) 103% | viability, T/C (second compound 10 µM, first compound 0.00316 µM) 94.4% | viability, T/C (second compound 10 µM, first compound 0.01 µM) 100% | viability, T/C [11] 111% | viability, T/C [12] 99.2%
> 0.1 µM: IC50 (second compound 0.0316 µM) | IC50 (second compound 0.1 µM) | IC50 (second compound 0.316 µM) | IC50 (second compound 1 µM) | IC50 (second compound 3.16 µM) | IC50 (second compound 10 µM)

O=C(c1cc(Cc2n[nH]c(=O)c3ccccc23)ccc1F)N1CCN(C(=O)C2CC2)CC1 + Cc1cccc(N(C)C(=O)C2C(O)CCN2c2nc(C)cc(C(F)(F)F)c2C#N)c1
inactive: viability, T/C [1] 117% | viability, T/C [2] 114% | viability, T/C (second compound 0.0316 µM, first compound 0.316 µM) 117% | viability, T/C (second compound 0.0316 µM, first compound 1 µM) 107% | viability, T/C (second compound 0.0316 µM, first compound 3.16 µM) 101% | viability, T/C (second compound 0.0316 µM, first compound 10 µM) 80.1% | viability, T/C [3] 111% | viability, T/C [4] 103% | viability, T/C (second compound 0.1 µM, first compound 0.316 µM) 108% | viability, T/C (second compound 0.1 µM, first compound 1 µM) 109% | viability, T/C (second compound 0.1 µM, first compound 3.16 µM) 101% | viability, T/C (second compound 0.1 µM, first compound 10 µM) 75.3% | viability, T/C [5] 105% | viability, T/C [6] 95% | viability, T/C (second compound 0.316 µM, first compound 0.316 µM) 110% | viability, T/C (second compound 0.316 µM, first compound 1 µM) 111% | viability, T/C (second compound 0.316 µM, first compound 3.16 µM) 103% | viability, T/C (second compound 0.316 µM, first compound 10 µM) 76.8% | viability, T/C [7] 104% | viability, T/C [8] 108% | viability, T/C (second compound 1 µM, first compound 0.316 µM) 111% | viability, T/C (second compound 1 µM, first compound 1 µM) 107% | viability, T/C (second compound 1 µM, first compound 3.16 µM) 106% | viability, T/C (second compound 1 µM, first compound 10 µM) 81.2% | viability, T/C [9] 93.8% | viability, T/C [10] 103% | viability, T/C (second compound 3.16 µM, first compound 0.316 µM) 120% | viability, T/C (second compound 3.16 µM, first compound 1 µM) 103% | viability, T/C (second compound 3.16 µM, first compound 3.16 µM) 105% | viability, T/C (second compound 3.16 µM, first compound 10 µM) 66.9% | viability, T/C [11] 109% | viability, T/C [12] 113% | viability, T/C (second compound 10 µM, first compound 0.316 µM) 114% | viability, T/C (second compound 10 µM, first compound 1 µM) 106% | viability, T/C (second compound 10 µM, first compound 3.16 µM) 96.7% | viability, T/C (second compound 10 µM, first compound 10 µM) 65.1%
> 10 µM: IC50 (second compound 0.0316 µM) | IC50 (second compound 0.1 µM) | IC50 (second compound 0.316 µM) | IC50 (second compound 1 µM) | IC50 (second compound 3.16 µM) | IC50 (second compound 10 µM)
